{
  "source": "patent US10995091B2",
  "about": "(Proximagen, LLC, priority 2010, dated 2021)",
  "target": "T1, Human CXCR4 transfected HEK293 cells (Homo sapiens, UniProt P61073)",
  "T1 construct": "expressed in transfected cells; host or cells: HEK293",
  "T1 sequence (P61073 whole entry)": "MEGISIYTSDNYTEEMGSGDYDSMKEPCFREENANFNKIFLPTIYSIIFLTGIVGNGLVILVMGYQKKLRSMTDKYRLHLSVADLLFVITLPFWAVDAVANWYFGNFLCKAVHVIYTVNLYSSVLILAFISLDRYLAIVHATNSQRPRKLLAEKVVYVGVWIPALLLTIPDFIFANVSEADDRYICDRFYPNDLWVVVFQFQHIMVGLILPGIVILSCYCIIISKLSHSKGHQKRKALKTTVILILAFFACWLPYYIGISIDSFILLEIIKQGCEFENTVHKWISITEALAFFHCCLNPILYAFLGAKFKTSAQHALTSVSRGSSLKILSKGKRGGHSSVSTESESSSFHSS",
  "assay": "CXCR4 functional calcium assay (calcium flux FLIPR, antagonism of SDF1 response)",
  "assay_type": "cell-based",
  "settings": "CXCR4 functional activity, antagonism of SDF1 (EC50 concentration), read-out: CXCR4 fKi",
  "outline": "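Dose-dependent antagonism of the SDF1 response was read by FLIPR as Fluo-4 calcium signal (2 μM dye) in CXCR4-expressing human HEK293 cells, in HBSS with probenecid, BSA and HEPES at pH 7.4 and 37° C. Test compound was given before an EC50-level SDF1 challenge. Curves were then fitted.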",
  "note": "Structures can show the parent of a compound that is named as a salt.",
  "data": [
    {"smiles": "CC(C)N1CCC(N2CCCN(c3cccc(-c4nc5ccccc5[nH]4)n3)CC2)CC1", "note": "[Example 141, 2-(6-{4-[1-(Propan-2-yl)piperidin-4-yl]-1,4-diazepan-1-yl}pyridine-2-yl)-1H-1,3-benzodiazole]", "values": [
      {"measurement": "Ki", "result": "< 0.02", "unit": "µM"}
    ]},
    {"smiles": "CC(C)N1CCC(N2CCCN(c3cccc(-c4nc5cccc(F)c5[nH]4)n3)CC2)CC1", "note": "[Example 142, 7-Fluoro-2-(6-{4-[1-(propan-2-yl)piperidin-4-yl]-1,4-diazepan-1-yl}pyridine-2-yl)-1H-1,3-benzodiazole]", "values": [
      {"measurement": "Ki", "result": "0.02 to 0.1", "unit": "µM"}
    ]},
    {"smiles": "Cc1cccc2nc(-c3cccc(N4CCCN(C5CCN(C(C)C)CC5)CC4)n3)[nH]c12", "note": "[Example 143, 7-Methyl-2-(6-{4-[1-(propan-2-yl)piperidin-4-yl]-1,4-diazepan-1-yl}pyridine-2-yl)-1H-1,3-benzodiazole]", "values": [
      {"measurement": "Ki", "result": "0.1 to 0.5", "unit": "µM"}
    ]},
    {"smiles": "CC(C)N1CCC(N2CCCN(c3cccc(-c4nc5ccc(C(F)(F)F)cc5[nH]4)n3)CC2)CC1", "note": "[Example 144, 2-(6-{4-[1-(Propan-2-yl)piperidin-4-yl]-1,4-diazepan-1-yl}pyridine-2-yl)-6-(trifluoromethyl)-1H-1,3-benzodiazole]", "values": [
      {"measurement": "Ki", "result": "0.1 to 0.5", "unit": "µM"}
    ]},
    {"smiles": "CC(C)N1CCC(N2CCCN(c3cccc(-c4nc5cc(F)c(F)cc5[nH]4)n3)CC2)CC1", "note": "[Example 145, 5,6-Difluoro-2-(6-{4-[1-(propan-2-yl)piperidin-4-yl]-1,4-diazepan-1-yl}pyridine-2-yl)-1,3-benzodiazole]", "values": [
      {"measurement": "Ki", "result": "< 0.02", "unit": "µM"}
    ]},
    {"smiles": "Cc1cc2nc(-c3cccc(N4CCCN(C5CCN(C(C)C)CC5)CC4)n3)[nH]c2cc1C", "note": "[Example 146, 5,6-Dimethyl-2-(6-{4-[1-(propan-2-yl)piperidin-4-yl]-1,4-diazepan-1-yl}pyridine-2-yl)-1H-1,3-benzodiazole]", "values": [
      {"measurement": "Ki", "result": "0.1 to 0.5", "unit": "µM"}
    ]},
    {"smiles": "CC(C)N1CCC(N2CCCN(c3cccc(-c4nc5ccc(F)cc5[nH]4)n3)CC2)CC1", "note": "[Example 147, 6-Fluoro-2-(6-{4-[1-(propan-2-yl)piperidin-4-yl]-1,4-diazepan-1-yl}pyridine-2-yl)-1H-1,3-benzodiazole]", "values": [
      {"measurement": "Ki", "result": "0.02 to 0.1", "unit": "µM"}
    ]},
    {"smiles": "Cc1ccc2nc(-c3cccc(N4CCCN(C5CCN(C(C)C)CC5)CC4)n3)[nH]c2c1", "note": "[Example 148, 6-Methyl-2-(6-{4-[1-(propan-2-yl)piperidin-4-yl]-1,4-diazepan-1-yl}pyridine-2-yl)-1H-1,3-benzodiazole]", "values": [
      {"measurement": "Ki", "result": "0.02 to 0.1", "unit": "µM"}
    ]},
    {"smiles": "CC(C)N1CCC(N2CCCN(c3cccc(-c4nc5ccc(C#N)cc5[nH]4)n3)CC2)CC1", "note": "[Example 149, 2-(6-{4-[1-(Propan-2-yl)piperidin-4-yl]-1,4-diazepan-1-yl}pyridine-2-yl)-1H-1,3-benzodiazole-6-carbonitrile]", "values": [
      {"measurement": "Ki", "result": "< 0.02", "unit": "µM"}
    ]},
    {"smiles": "COc1ccc2nc(-c3cccc(N4CCCN(C5CCN(C(C)C)CC5)CC4)n3)[nH]c2c1", "note": "[Example 150, 6-Methoxy-2-(6-{4-[1-(propan-2-yl)piperidin-4-yl]-1,4-diazepan-1-yl}pyridine-2-yl)-1H-1,3-benzodiazole]", "values": [
      {"measurement": "Ki", "result": "0.02 to 0.1", "unit": "µM"}
    ]},
    {"smiles": "CC(C)N1CCC(N2CCCN(c3cccc(-c4nc5ccccc5s4)n3)CC2)CC1", "note": "[Example 151, 2-(6-{4-[1-(Propan-2-yl)piperidin-4-yl]-1,4-diazepan-1-yl}pyridine-2-yl)-1,3-benzothiazole]", "values": [
      {"measurement": "Ki", "result": "0.1 to 0.5", "unit": "µM"}
    ]},
    {"smiles": "CC(C)N1CCC(N2CCCN(c3cccc(-c4nc5ccccc5o4)n3)CC2)CC1", "note": "[Example 152, 2-(6-{4-[1-(Propan-2-yl)piperidin-4-yl]-1,4-diazepan-1-yl}pyridine-2-yl)-1,3-benzoxazole]", "values": [
      {"measurement": "Ki", "result": "0.1 to 0.5", "unit": "µM"}
    ]},
    {"smiles": "Cc1nc(-c2cccc(N3CCCN(C4CCN(C(C)C)CC4)CC3)n2)no1", "note": "[Example 153, 1-[6-(5-Methyl-1,2,4-oxadiazol-3-yl)pyridin-2-yl]-4-[1-(propan-2-yl)piperidin-4-yl]-1,4-diazepane]", "values": [
      {"measurement": "Ki", "result": "0.5 to 1", "unit": "µM"}
    ]},
    {"smiles": "CCCc1nc(-c2cccc(N3CCCN(C4CCN([C@H](C)CC)CC4)CC3)n2)no1", "note": "[Example 154, 1-{1-[(2R)-Butan-2-yl]piperidin-4-yl}-4-[6-(5-propyl-1,2,4-oxadiazol-3-yl)pyridin-2-yl]-1,4-diazepane]", "values": [
      {"measurement": "Ki", "result": "0.1 to 0.5", "unit": "µM"}
    ]},
    {"smiles": "CCc1nc(-c2cccc(N3CCCN(C4CCN(C(C)C)CC4)CC3)n2)no1", "note": "[Example 155, 1-[6-(5-Ethyl-1,2,4-oxadiazol-3-yl)pyridine-2-yl]-4-[1-(propan-2-yl)piperidin-4-yl]-1,4-diazepane trihydrochloride]", "values": [
      {"measurement": "Ki", "result": "0.1 to 0.5", "unit": "µM"}
    ]},
    {"smiles": "CCCc1nc(-c2cccc(N3CCCN(C4CCN(C(C)C)CC4)CC3)n2)no1", "note": "[Example 156, 1-[1-(Propan-2-yl)piperidin-4-yl]-4-[6-(5-propyl-1,2,4-oxadiazol-3-yl)pyridine-2-yl]-1,4-diazepane]", "values": [
      {"measurement": "Ki", "result": "0.02 to 0.1", "unit": "µM"}
    ]},
    {"smiles": "CCCCc1nc(-c2cccc(N3CCCN(C4CCN(C(C)C)CC4)CC3)n2)no1", "note": "[Example 157, 1-[6-(5-Butyl-1,2,4-oxadiazol-3-yl)pyridine-2-yl]-4-[1-(propan-2-yl)piperidin-4-yl]-1,4-diazepane]", "values": [
      {"measurement": "Ki", "result": "0.1 to 0.5", "unit": "µM"}
    ]},
    {"smiles": "CC(C)c1nc(-c2cccc(N3CCCN(C4CCN(C(C)C)CC4)CC3)n2)no1", "note": "[Example 158, 1-{6-[5-(Propan-2-yl)-1,2,4-oxadiazol-3-yl]pyridine-2-yl}-4-[1-(propan-2-yl)piperidin-4-yl]-1,4-diazepane]", "values": [
      {"measurement": "Ki", "result": "0.5 to 1", "unit": "µM"}
    ]},
    {"smiles": "CC(C)N1CCC(N2CCCN(c3cccc(-c4noc(C(C)(C)C)n4)n3)CC2)CC1", "note": "[Example 159, 1-[6-(5-tert-Butyl-1,2,4-oxadiazol-3-yl)pyridine-2-yl]-4-[1-(propan-2-yl)piperidin-4-yl]-1,4-diazepane]", "values": [
      {"measurement": "Ki", "result": "0.5 to 1", "unit": "µM"}
    ]},
    {"smiles": "CC(C)N1CCC(N2CCCN(c3cccc(-c4noc(CC(C)(C)C)n4)n3)CC2)CC1", "note": "[Example 160, 1-{6-[5-(2,2-Dimethylpropyl)-1,2,4-oxadiazol-3-yl]pyridine-2-yl}-4-[1-(propan-2-yl)piperidin-4-yl]-1,4-diazepane]", "values": [
      {"measurement": "Ki", "result": "0.1 to 0.5", "unit": "µM"}
    ]},
    {"smiles": "CC(C)N1CCC(N2CCCN(c3cccc(-c4noc(C5CC5)n4)n3)CC2)CC1", "note": "[Example 161, 1-[6-(5-Cyclopropyl-1,2,4-oxadiazol-3-yl)pyridine-2-yl]-4-[1-(propan-2-yl)piperidin-4-yl]-1,4-diazepane]", "values": [
      {"measurement": "Ki", "result": "0.1 to 0.5", "unit": "µM"}
    ]},
    {"smiles": "CC(C)N1CCC(N2CCCN(c3cccc(-c4noc(C5CCCC5)n4)n3)CC2)CC1", "note": "[Example 162, 1-[6-(5-Cyclopentyl-1,2,4-oxadiazol-3-yl)pyridine-2-yl]-4-[1-(propan-2-yl)piperidin-4-yl]-1,4-diazepane]", "values": [
      {"measurement": "Ki", "result": "0.1 to 0.5", "unit": "µM"}
    ]},
    {"smiles": "COCc1nc(-c2cccc(N3CCCN(C4CCN(C(C)C)CC4)CC3)n2)no1", "note": "[Example 163, 1-{6-[5-(Methoxymethyl)-1,2,4-oxadiazol-3-yl]pyridine-2-yl}-4-[1-(propan-2-yl)piperidin-4-yl]-1,4-diazepane]", "values": [
      {"measurement": "Ki", "result": "0.1 to 0.5", "unit": "µM"}
    ]},
    {"smiles": "CC(C)N1CCC(N2CCCN(c3cccc(-c4noc(-c5ccccc5)n4)n3)CC2)CC1", "note": "[Example 164, 1-[6-(5-Phenyl-1,2,4-oxadiazol-3-yl)pyridine-2-yl]-4-[1-(propan-2-yl)piperidin-4-yl]-1,4-diazepane]", "values": [
      {"measurement": "Ki", "result": "0.02 to 0.1", "unit": "µM"}
    ]},
    {"smiles": "CC(C)N1CCC(N2CCCN(c3cccc(-c4noc(-c5ccccn5)n4)n3)CC2)CC1", "note": "[Example 165, 1-[1-(Propan-2-yl)piperidin-4-yl]-4-{6-[5-(pyridine-2-yl)-1,2,4-oxadiazol-3-yl]pyridine-2-yl}-1,4-diazepane tetrahydrochloride]", "values": [
      {"measurement": "Ki", "result": "0.1 to 0.5", "unit": "µM"}
    ]},
    {"smiles": "CC(C)N1CCC(N2CCCN(c3cccc(-c4noc(-c5cccnc5)n4)n3)CC2)CC1", "note": "[Example 166, 1-[1-(Propan-2-yl)piperidin-4-yl]-4-{6-[5-(pyridine-3-yl)-1,2,4-oxadiazol-3-yl]pyridine-2-yl}-1,4-diazepane tetrahydrochloride]", "values": [
      {"measurement": "Ki", "result": "0.1 to 0.5", "unit": "µM"}
    ]}
  ]
}
